Assay results from patent US11981658B2, “Substituted aminopyridine compounds as EGFR inhibitors” (YUHAN CORPORATION, priority 2021, dated 2024).
Like-named read-outs stand apart in the source and are kept apart here.

What was measured:
[1] = target: EGFR Del19/C797S (Homo sapiens, UniProt P00533, C797S/DEL746-750); experiment: Biochemical EGFR kinase inhibition assay (Lance Ultra TR-FRET), double mutant del19/C797S
Method in brief: (§1)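 Step 1: compound in kinase buffer, 0.003–10 μM. Step 2: kinase reaction 1 h at room temperature. Step 4: TR-FRET read at 615/665 nm; IC50 calculated.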

[2] = target: EGFR L858R/C797S (Homo sapiens, UniProt P00533, C797S/L858R); experiment: Biochemical EGFR kinase inhibition assay (Lance Ultra TR-FRET), double mutant L858R/C797S
Method in brief: as §1

[3] = target: EGFR Del19/T790M/C797S (Homo sapiens, UniProt P00533, C797S/DEL746-750/T790M); experiment: Biochemical EGFR kinase inhibition assay (Lance Ultra TR-FRET), triple mutant del19/T790M/C797S
Method in brief: as §1

[4] = target: EGFR wildtype (WT) (Homo sapiens, UniProt P00533); experiment: Biochemical EGFR kinase inhibition assay (Lance Ultra TR-FRET), wildtype
Method in brief: as §1

[5] = target: EGFR L858R/T790M/C797S (Homo sapiens, UniProt P00533, C797S/L858R/T790M); experiment: Biochemical EGFR kinase inhibition assay (Lance Ultra TR-FRET), triple mutant L858R/T790M/C797S
Method in brief: as §1

[6] = IC50 Del19/C797S (nM), 100 μM ATP
[7] = IC50 L858R/C797S (nM), 100 μM ATP
[8] = IC50 Del19/T790M/C797S (nM), 100 μM ATP
[9] = Km ATP, read-out: IC50 Del19/T790M/C797S (nM), Km ATP
[10] = IC50 L858R/T790M/C797S (nM), 100 μM ATP
[11] = Km ATP, read-out: IC50 L858R/T790M/C797S (nM), Km ATP
[12] = Km ATP, read-out: IC50 Del19/C797S (nM), Km ATP
[13] = Km ATP, read-out: IC50 L858R/C797S (nM), Km ATP
[14] = Km ATP, read-out: IC50 WT (nM), Km ATP

| Compound | IC50 [1, 6] [nM] | IC50 [2, 7] [nM] | IC50 [3, 8] [nM] | IC50 [3, 9] [nM] | IC50 ([4]; IC50 WT (nM), 100 μM ATP) [nM] | IC50 [5, 10] [nM] | IC50 [5, 11] [nM] | IC50 [1, 12] [nM] | IC50 [2, 13] [nM] | IC50 [4, 14] [nM] | IC50 ([1]; ATP at Km, read-out: IC50 Del19/C797S (nM), Km ATP) [nM] | IC50 ([1]; read-out: IC50 Del19/C797S (nM), 100 μM ATP) [nM] | IC50 ([2]; ATP at Km, read-out: IC50 L858R/C797S (nM), Km ATP) [nM] | IC50 ([2]; read-out: IC50 L858R/C797S (nM), 100 μM ATP) [nM] | IC50 ([3]; ATP at Km, read-out: IC50 Del19/T790M/C797S (nM), Km ATP) [nM] | IC50 ([3]; read-out: IC50 Del19/T790M/C797S (nM), 100 μM ATP) [nM] | IC50 ([4]; ATP at Km, read-out: IC50 WT (nM), Km ATP) [nM] | IC50 ([4]; read-out: IC50 WT (nM), 100 μM ATP) [nM] | IC50 ([5]; read-out: IC50 L858R/T790M/C797S (nM), 100 μM ATP) [nM] |
| --- | --- | --- | --- | --- | --- | --- | --- | --- | --- | --- | --- | --- | --- | --- | --- | --- | --- | --- | --- |
| O=C(c1ccc(C#Cc2cnc(Nc3ccnc(-c4cnn(S(=O)(=O)C5CC5)c4)n3)cc2N2CCC[C@H](O)C2)cc1)N1CCC(O)CC1 [Example 445, (S)-(4-((6-((2-(1-(Cyclopropylsulfonyl)-1H-pyrazol-4-yl)pyrimidin-4-yl)amino)-4-(3-hydroxypiperidin-1-yl)pyridin-3-yl)ethynyl)phenyl)(4-hydroxypiperidin-1-yl)methanone] | 2 | 104 | 0.9 | 0.5 | > 10000 | 0.4 | 0.1 |  |  |  |  |  |  |  |  |  |  |  |  |
| CC1(CO)CCN(c2cc(Nc3ccnc(-c4cnn(S(=O)(=O)C5CC5)c4)n3)ncc2C#Cc2ccc(C(=O)N3CCC(O)CC3)cc2)CC1 [Example 446, (4-((6-((2-(1-(Cyclopropylsulfonyl)-1H-pyrazol-4-yl)pyrimidin-4-yl)amino)-4-(4-(hydroxymethyl)-4-methylpiperidin-1-yl)pyridin-3-yl)ethynyl)phenyl)(4-hydroxypiperidin-1-yl)methanone] | 1.3 | 18.9 | 1.2 | 1 | 2670 | 0.4 | 0.2 |  |  |  |  |  |  |  |  |  |  |  |  |
| C[C@]1(O)CCCN(c2cc(Nc3ccnc(-c4cnn(S(=O)(=O)C5CC5)c4)n3)ncc2C#Cc2cnn(CCF)c2)C1 [Example 447, (S)-1-(2-((2-(1-(Cyclopropylsulfonyl)-1H-pyrazol-4-yl)pyrimidin-4-yl)amino)-5-((1-(2-fluoroethyl)-1H-pyrazol-4-yl)ethynyl)pyridin-4-yl)-3-methylpiperidin-3-ol] | 2.1 | 59.8 | 0.4 | 0.3 | > 10000 | 0.5 | 0.2 | 1.5 | 3.5 | 16.9 |  |  |  |  |  |  |  |  |  |
| C[C@]1(O)CCCN(c2cc(Nc3ccnc(-c4cnn(S(=O)(=O)C5CC5)c4)n3)ncc2C#Cc2cnn(C(F)(F)F)c2)C1 [Example 448, (S)-1-(2-((2-(1-(Cyclopropylsulfonyl)-1H-pyrazol-4-yl)pyrimidin-4-yl)amino)-5-((1-(trifluoromethyl)-1H-pyrazol-4-yl)ethynyl)pyridin-4-yl)-3-methylpiperidin-3-ol] | 44.7 | 503 | 1.7 | 1 | > 10000 | 6.1 | 1.2 | 27.7 | 5.8 | 300 |  |  |  |  |  |  |  |  |  |
| CC1(CO)CCN(c2cc(Nc3ccnc(N4CCN(S(=O)(=O)C5CC5)CC4)n3)ncc2C#Cc2cnn(C(F)(F)F)c2)CC1 [Example 449, (1-(2-((2-(4-(Cyclopropylsulfonyl)piperazin-1-yl)pyrimidin-4-yl)amino)-5-((1-(trifluoromethyl)-1H-pyrazol-4-yl)ethynyl)pyridin-4-yl)-4-methylpiperidin-4-yl)methanol] |  |  |  | 165 |  |  | 51.7 | 268 | 69.3 | 564 |  |  |  |  |  |  |  |  |  |
| (1-(2-((2-(1-(Cyclopropylsulfonyl)-1H-pyrazol-4-yl)pyrimidin-4-yl)amino)-5-((5-((3,3-difluoroazetidin-1-yl)methyl)-1-(2,2-difluoroethyl)-1H-pyrrol-3-yl)ethynyl)pyridin-4-yl)-4-methylpiperidin-4-yl)methanol [Example 248] |  |  |  |  |  |  |  |  |  |  | 9.9 | 8.6 | 16.6 | 39.4 | 8.3 | 13.8 | 30.1 | 6600 | 11.4 |
